Values of other authors as cited in patent US7090851B1, “Long lasting fusion peptide inhibitors of viral infection” (priority 1999, dated 2006).
“Also recorded” adds a separate entry of the source.

tested on: human parainfluenza virus 3 (HPIV3); conditions: HPIV3-infected Hep2 cells and uninfected CV-1W cells

| Substance | inhibition of HPIV3 viral infection, fusion and syncytia formation |
| --- | --- |
| ALDPIDISIELNKAKSDLEESKEWIRRSNQKLDSI (VALDPIDISIELNKAKSDLEESKEWIRRSNQKLDS) [SEQ ID NO:38, anti-HPIV peptide] | inhibits viral infection |
| VEAKQARSDIEKLKEAIRDTNKAVQSVQSSIGNLI [SEQ ID NO:52] | inhibits viral infection |
| IDISIELNKAKSDLEESKEWIRRSNQKLDSIGNWH (PIDISIELNKAKSDLEESKEWIRRSNQKLDSIGNW) [SEQ ID NO:42, anti-HPIV peptide] | inhibits viral infection |
| NSVALDPIDISIELNKAKSDLEESKEWIRRSNQKL (NNSVALDPIDISIELNKAKSDLEESKEWIRRSNQK) [SEQ ID NO:35, anti-HPIV peptide] | inhibits viral infection |
| LDPIDISIELNKAKSDLEESKEWIRRSNQKLDSIG (ALDPIDISIELNKAKSDLEESKEWIRRSNQKLDSI) [SEQ ID NO:39, anti-HPIV peptide] | inhibits viral infection |
| PIDISIELNKAKSDLEESKEWIRRSNQKLDSIGNW (DPIDISIELNKAKSDLEESKEWIRRSNQKLDSIGN) [SEQ ID NO:41, anti-HPIV peptide] | inhibits viral infection |
| RSDIEKLKEAIRDTNKAVQSVQSSIGNLIVAIKSV [SEQ ID NO:58] | inhibits viral infection |
| DPIDISIELNKAKSDLEESKEWIRRSNQKLDSIGN (LDPIDISIELNKAKSDLEESKEWIRRSNQKLDSIG) [SEQ ID NO:40, anti-HPIV peptide] | inhibits viral infection |

tested on: HIV-1; conditions: infection and cell-cell fusion

| Substance | anti-HIV-1 activity (words) |
| --- | --- |
| enfuvirtide | potent inhibitor of HIV-1; also recorded: potent anti-HIV-1 activity |

same assay, conditions: infection and cell-cell fusion; listed as DP-107

| Substance | anti-HIV-1 activity (words) |
| --- | --- |
| NNLLRAIEAQQHLLQLTVWQIKQLQARILAVERYLKDQ [DP107] | potent inhibitors of HIV-1 infection and fusion |

same assay, conditions: infection and cell-cell fusion; listed as DP-178

| Substance | anti-HIV-1 activity (words) |
| --- | --- |
| enfuvirtide | potent inhibitors of HIV-1 infection and fusion |

tested on: simian immunodeficiency virus (SIV); conditions: as crude peptide

| Substance | anti-SIV activity |
| --- | --- |
| EWERKVDFLEENITALLEEAQIQQEKNMYELQKLN [SEQ ID NO:66] | potent antiviral activity |
| WERKVDFLEENITALLEEAQIQQEKNMYELQKLNS [SEQ ID NO:67] | potent antiviral activity |
| WQEWERKVDFLEENITALLEEAQIQQEKNMYELQK [SEQ ID NO:64] | potent antiviral activity |
| FLEENITALLEEAQIQQEKNMYELQKLNSWDVFGN [SEQ ID NO:73] | potent antiviral activity |
| KVDFLEENITALLEEAQIQQEKNMYELQKLNSWDV [SEQ ID NO:70] | potent antiviral activity |
| RKVDFLEENITALLEEAQIQQEKNMYELQKLNSWD [SEQ ID NO:69] | potent antiviral activity |
| ERKVDFLEENITALLEEAQIQQEKNMYELQKLNSW [SEQ ID NO:68] | potent antiviral activity |
| QEWERKVDFLEENITALLEEAQIQQEKNMYELQKL [SEQ ID NO:65] | potent antiviral activity |
| VDFLEENITALLEEAQIQQEKNMYELQKLNSWDVF [SEQ ID NO:71] | potent antiviral activity |
| DFLEENITALLEEAQIQQEKNMYELQKLNSWDVFG [SEQ ID NO:72] | potent antiviral activity |

tested on: respiratory syncytial virus (RSV); conditions: Hep-2 cells

| Substance | concentration inhibiting fusion and syncytia formation between RSV-infected and uninfected Hep-2 cells |
| --- | --- |
| IALLSTNKAVVSLSNGVSVLTSKVLDLKNYIDK [SEQ ID NO:29, anti-RSV peptide] | less than 50 μg/ml |

same assay, conditions: RSV-infected and uninfected Hep-2 cells

| Substance | inhibition of RSV viral infection, fusion and syncytia formation |
| --- | --- |
| IALLSTNKAVVSLSNGVSVLTSKVLDLKNYIDK [SEQ ID NO:29, anti-RSV peptide] | inhibits viral infection |
| TSVITIELSNIKENKCNGAKVKLIKQELDKYKN (TSVITIELSNIKENKCNGDAKVKLIKQELDKYKN) [SEQ ID NO:15, anti-RSV peptide] | inhibits viral infection |
| YTSVITIELSNIKENKCNGAKVKLIKQELDKYK (YTSVITIELSNIKENKCNGDAKVKLIKQELDKYK) [SEQ ID NO:14, anti-RSV peptide] | inhibits viral infection |
| VITIELSNIKENKCNGAKVKLIKQELDKYKNAV (VITIELSNIKENKCNGDAKVKLIKQELDKYKNAV) [SEQ ID NO:16, anti-RSV peptide] | inhibits viral infection |

tested on: measles virus (MeV); conditions: MeV-infected and uninfected Vero cells

| Substance | inhibition of MeV viral infection, fusion and syncytia formation |
| --- | --- |
| HRIDLGPPISLERLDVGTNLGNAIAKLEAKELLE [SEQ ID NO:77] | inhibits viral infection |
| PISLERLDVGTNLGNAIAKLEAKELLESSDQILR [SEQ ID NO:84] | inhibits viral infection |
| IDLGPPISLERLDVGTNLGNAIAKLEAKELLESS [SEQ ID NO:79] | inhibits viral infection |
